Laboratory results taken from patent US20210238192A1, “VASCULAR ADHESION PROTEIN-1 (VAP-1) MODULATORS AND THERAPEUTIC USES THEREOF” (Blade Therapeutics, Inc., priority 2018, published 2021).
Structures can show the parent of a compound that is named as a salt.

Experiments:
Assay type in all cases: biochemical
[1] = biological target: T1, Human VAP-1 (Homo sapiens, UniProt Q16853); assay: VAP-1 inhibition assay (Amplex Red continuous fluorescence assay); settings: 30 min pre-incubation at 37° C.; substrate benzylamine; read-out: Human VAP-1 IC50
T1 sequence (Q16853 1-763): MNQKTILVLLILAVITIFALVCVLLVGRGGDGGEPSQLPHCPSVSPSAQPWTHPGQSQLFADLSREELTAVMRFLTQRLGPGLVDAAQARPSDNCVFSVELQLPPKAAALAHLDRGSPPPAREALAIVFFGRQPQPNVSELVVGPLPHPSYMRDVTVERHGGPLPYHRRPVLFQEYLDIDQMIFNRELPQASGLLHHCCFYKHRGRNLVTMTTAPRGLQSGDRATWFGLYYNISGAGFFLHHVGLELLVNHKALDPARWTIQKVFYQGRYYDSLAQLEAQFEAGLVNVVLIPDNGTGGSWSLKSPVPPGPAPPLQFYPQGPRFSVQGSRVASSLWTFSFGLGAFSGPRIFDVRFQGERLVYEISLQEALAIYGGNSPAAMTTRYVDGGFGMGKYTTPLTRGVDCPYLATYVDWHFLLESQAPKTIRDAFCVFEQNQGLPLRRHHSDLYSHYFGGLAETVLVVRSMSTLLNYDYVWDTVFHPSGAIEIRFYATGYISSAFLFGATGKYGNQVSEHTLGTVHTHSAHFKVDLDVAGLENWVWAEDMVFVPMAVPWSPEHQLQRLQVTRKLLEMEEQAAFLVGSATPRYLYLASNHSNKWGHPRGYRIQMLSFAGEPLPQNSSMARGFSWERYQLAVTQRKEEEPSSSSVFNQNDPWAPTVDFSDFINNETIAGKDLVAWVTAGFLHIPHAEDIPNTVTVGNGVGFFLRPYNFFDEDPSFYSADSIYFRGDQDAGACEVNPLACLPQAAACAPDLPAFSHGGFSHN
Experimental: (§1) VAP-1, DAO, MAO-A, MAO-B, and HRP activity and inhibition thereof was assessed by means of a continuous fluorescence assay. The Amplex Red Hydrogen Peroxide/Peroxidase Assay (ThermoFisher) was optimized for detecting amine oxidase (AO) activity. In an enzyme-coupled reaction, the H2O2 generated by AO reacts 1:1 with Amplex Red reagent to produce fluorescent product resorufin.
(§2) Assays were typically setup in black 384-well plates using automated liquid handling as follows. VAP-1/MAO assay buffer contains […] sodium phosphate, pH 7.4; DAO assay buffer contains 50 mM HEPES, pH 7.5; HRP assay buffer contains 100 mM CHES, 1 mM MgCl2, 50 mM NaCl, 0.05% BSA, pH 9.0. Inhibitors were serially diluted in DMSO and used to setup 2× mixtures with AO in the aforementioned buffer. After 30 min pre-incubation at 37° C. (VAP-1, HRP) or room temp (DAO, MAO), the reaction was initiated by adding a 2× mix of Amplex Red, HRP (coupling enzyme), and substrate (benzylamine, histamine, tyramine, benzylamine, H2O2, for VAP-1, DAO, MAO-A, MAO-B, and HR, respectively) in the same buffer. Reaction progress curve data were typically collected for 5 min using excitation/emission wavelengths of 510 nm/565 nm on FLIPR-Tetra plate readers (Molecular Devices Inc). Reaction rates were calculated from progress curve slopes typically over 60-150 sec. Dose response curves (rate vs. log inhibitor concentration) were typically fit to a 4-parameter logistic function to extract IC50 values.

[2] = biological target: T2, Human MAO-A (Homo sapiens, UniProt P21397); assay: MAO-A inhibition (Amplex Red continuous fluorescence assay); settings: 30 min pre-incubation at room temp; substrate tyramine; read-out: Human MAO-A IC50
T2 sequence (P21397 1-527): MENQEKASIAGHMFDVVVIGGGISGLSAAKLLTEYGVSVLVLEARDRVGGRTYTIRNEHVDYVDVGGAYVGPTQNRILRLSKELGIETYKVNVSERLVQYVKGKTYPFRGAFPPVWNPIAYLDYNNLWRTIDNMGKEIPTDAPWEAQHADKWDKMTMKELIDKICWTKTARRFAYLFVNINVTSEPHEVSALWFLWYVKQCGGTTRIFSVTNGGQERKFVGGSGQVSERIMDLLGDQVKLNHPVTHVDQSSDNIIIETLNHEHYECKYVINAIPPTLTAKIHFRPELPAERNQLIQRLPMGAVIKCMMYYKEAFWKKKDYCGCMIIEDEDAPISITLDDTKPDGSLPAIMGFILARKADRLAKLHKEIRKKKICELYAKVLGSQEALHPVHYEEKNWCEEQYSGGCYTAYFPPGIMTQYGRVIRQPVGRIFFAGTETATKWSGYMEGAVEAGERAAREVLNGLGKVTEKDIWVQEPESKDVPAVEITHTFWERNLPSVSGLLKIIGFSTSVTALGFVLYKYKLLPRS
Experimental: as §1, §2

[3] = biological target: T3, Human DAO (Homo sapiens, UniProt P19801); assay: DAO inhibition (Amplex Red continuous fluorescence assay); settings: 30 min pre-incubation at room temp; substrate histamine; read-out: Human DAO IC50
T3 sequence (P19801 20-751): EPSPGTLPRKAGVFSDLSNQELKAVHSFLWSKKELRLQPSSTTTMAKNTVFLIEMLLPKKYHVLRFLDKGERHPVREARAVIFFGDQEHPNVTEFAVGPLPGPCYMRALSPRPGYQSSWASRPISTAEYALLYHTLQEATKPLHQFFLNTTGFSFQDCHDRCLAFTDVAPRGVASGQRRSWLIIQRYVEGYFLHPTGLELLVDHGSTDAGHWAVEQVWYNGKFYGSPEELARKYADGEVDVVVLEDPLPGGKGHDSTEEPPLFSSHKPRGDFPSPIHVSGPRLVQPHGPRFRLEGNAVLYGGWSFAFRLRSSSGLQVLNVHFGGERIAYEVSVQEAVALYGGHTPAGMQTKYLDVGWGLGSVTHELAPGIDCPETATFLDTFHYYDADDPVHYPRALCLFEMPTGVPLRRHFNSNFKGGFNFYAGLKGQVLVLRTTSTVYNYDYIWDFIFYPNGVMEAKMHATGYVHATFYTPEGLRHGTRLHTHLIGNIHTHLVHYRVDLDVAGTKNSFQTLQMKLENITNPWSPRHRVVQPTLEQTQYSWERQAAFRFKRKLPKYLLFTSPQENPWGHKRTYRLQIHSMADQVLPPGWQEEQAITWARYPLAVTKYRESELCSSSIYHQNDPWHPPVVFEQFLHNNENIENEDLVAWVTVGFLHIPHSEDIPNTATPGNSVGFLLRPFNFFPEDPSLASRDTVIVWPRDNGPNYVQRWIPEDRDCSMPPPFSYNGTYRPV
Experimental: as §1, §2

[4] = biological target: T4, Human MAO-B (Homo sapiens, UniProt P27338); assay: MAO-B inhibition (Amplex Red continuous fluorescence assay); settings: 30 min pre-incubation at room temp; substrate benzylamine; read-out: Human MAO-B IC50
T4 sequence (P27338 1-520): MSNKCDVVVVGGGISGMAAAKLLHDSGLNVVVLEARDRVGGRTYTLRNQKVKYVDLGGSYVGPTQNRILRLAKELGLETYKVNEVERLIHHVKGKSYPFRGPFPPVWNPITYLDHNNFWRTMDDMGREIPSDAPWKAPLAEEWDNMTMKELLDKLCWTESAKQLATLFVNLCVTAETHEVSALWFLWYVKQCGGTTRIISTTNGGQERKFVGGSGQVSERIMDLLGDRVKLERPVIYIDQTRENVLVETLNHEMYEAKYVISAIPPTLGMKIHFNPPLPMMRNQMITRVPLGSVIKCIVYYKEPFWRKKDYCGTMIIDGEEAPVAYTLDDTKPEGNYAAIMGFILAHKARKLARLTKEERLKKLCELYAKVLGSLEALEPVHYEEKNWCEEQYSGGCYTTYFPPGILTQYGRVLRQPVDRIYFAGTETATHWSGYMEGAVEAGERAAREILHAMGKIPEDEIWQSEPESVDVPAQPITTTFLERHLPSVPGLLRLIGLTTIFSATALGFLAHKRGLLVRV
Experimental: as §1, §2

Compound | IC50 [1] | IC50 [2] | IC50 [3] | IC50 [4]
NC/C(=C/F)COc1ccc(-c2nc3ccccc3[nH]2)cc1 [Compound 11, (Z)-2-((4-(1H-benzo[d]imidazol-2-yl)phenoxy)methyl)-3-fluoroprop-2-en-1-amine hydrochloride] | < 3 µM | < 3 µM | < 3 µM | < 3 µM
CCOC(=O)Nc1ccc(OC/C(=C/F)CN)cc1 [Compound 13] | < 3 µM | < 3 µM | 3 to 10 µM | < 3 µM
NC/C(=C\F)COc1cccc2c1OCO2 [Compound 14, (E)-2-((benzo[d][1,3]dioxol-4-yloxy)methyl)-3-fluoroprop-2-en-1-amine hydrochloride] | < 3 µM | < 3 µM | 3 to 10 µM | < 3 µM
NC/C(=C\F)Cn1ccc2ccccc21 [Compound 15, (E)-2-((1H-indol-1-yl)methyl)-3-fluoroprop-2-en-1-amine hydrochloride] | < 3 µM | < 3 µM | > 10 µM | < 3 µM
NC/C(=C/F)COc1cccc2c1OCO2 [Compound 16, (Z)-2-((benzo[d][1,3]dioxol-4-yloxy)methyl)-3-fluoroprop-2-en-1-amine hydrochloride] | < 3 µM | < 3 µM | < 3 µM | < 3 µM
CC(C)NC(=O)Nc1ccc(OC/C(=C/F)CN)cc1 [Compound 18, (E)-1-(4-((2-(aminomethyl)-3-fluoroalkyl)oxy)phenyl)-3-isopropylurea hydrochloride] | < 3 µM | < 3 µM | 3 to 10 µM | < 3 µM
NC/C(=C\F)COc1ccc(-c2nccs2)cc1 [Compound 19, (E)-3-fluoro-2-((4-(thiazol-2-yl)phenoxy)methyl)prop-2-en-1-amine hydrochloride] | < 3 µM | 3 to 10 µM | < 3 µM | < 3 µM
NC/C(=C/F)COc1ccc(-c2nccs2)cc1 [Compound 20, (Z)-3-Fluoro-2-((4-(Thiazol-2-Yl)Phenoxy)Methyl)Prop-2-En-1-Amine Hydrochloride] | < 3 µM | < 3 µM | < 3 µM | < 3 µM
NC/C(=C\F)CNC(=O)c1ccccc1 [Compound 21, (E)-N-(2-(aminomethyl)-3-fluoroalkyl)benzamide hydrochloride] | < 3 µM | 3 to 10 µM | > 10 µM | > 10 µM
CCNC(=O)N(C)c1ccc(OC/C(=C/F)CN)cc1 [Compound 23, (E)-1-(4-((2-(aminomethyl)-3-fluoroalkyl)oxy)phenyl)-3-ethyl-1-methylurea hydrochloride] | < 3 µM | > 10 µM | > 10 µM | 3 to 10 µM
CCN(CC)C(=O)Nc1ccc(OC/C(=C/F)CN)cc1 [Compound 24, (E)-3-(4-((2-(aminomethyl)-3-fluoroalkyl)oxy)phenyl)-1,1-diethylurea hydrochloride] | < 3 µM | 3 to 10 µM | > 10 µM | < 3 µM
NC/C(=C\F)COc1ccc(-c2ncco2)cc1 [Compound 25, (E)-3-fluoro-2-((4-(oxazol-2-yl)phenoxy)methyl)prop-2-en-1-amine hydrochloride] | < 3 µM | 3 to 10 µM | < 3 µM | < 3 µM
NC/C(=C\F)CNCc1ccccc1 [Compound 26, (E)-N^1-benzyl-2-(fluoromethylene)propane-1,3-diamine] | < 3 µM | 3 to 10 µM | > 10 µM | < 3 µM
Cn1ccnc1-c1ccc(OC/C(=C\F)CN)cc1 [Compound 28, hydrochloride] | < 3 µM | > 10 µM | < 3 µM | < 3 µM
NC/C(=C\F)COc1ccc(-c2cocn2)cc1 [Compound 29, (E)-3-fluoro-2-((4-(oxazol-4-yl)phenoxy)methyl)prop-2-en-1-amine hydrochloride] | < 3 µM | < 3 µM | < 3 µM | < 3 µM
NC/C(=C/F)COc1ccc(-c2cocn2)cc1 [Compound 30, (Z)-3-fluoro-2-((4-(oxazol-4-yl)phenoxy)methyl)prop-2-en-1-amine hydrochloride] | < 3 µM | < 3 µM | < 3 µM | < 3 µM
NC/C(=C\F)COc1ccc(-c2ccccc2)cc1 [Compound 33, (E)-2-(([1,1′-biphenyl]-4-yloxy)methyl)-3-fluoroprop-2-en-1-amine hydrochloride] | < 3 µM | < 3 µM | > 10 µM | < 3 µM
NC/C(=C/F)COc1ccc(-c2ccccc2)cc1 [Compound 34, (Z)-2-(([1,1′-biphenyl]-4-yloxy)methyl)-3-fluoroprop-2-en-1-amine hydrochloride] | < 3 µM | < 3 µM | < 3 µM | < 3 µM
